The target in one assay is TDO2 (Homo sapiens, UniProt P48775). Briefly: cell-based.
A further assay deals with IDO1 (Homo sapiens, UniProt P14902). Briefly: cell-based.
Sequence of IDO1 (P14902 whole entry): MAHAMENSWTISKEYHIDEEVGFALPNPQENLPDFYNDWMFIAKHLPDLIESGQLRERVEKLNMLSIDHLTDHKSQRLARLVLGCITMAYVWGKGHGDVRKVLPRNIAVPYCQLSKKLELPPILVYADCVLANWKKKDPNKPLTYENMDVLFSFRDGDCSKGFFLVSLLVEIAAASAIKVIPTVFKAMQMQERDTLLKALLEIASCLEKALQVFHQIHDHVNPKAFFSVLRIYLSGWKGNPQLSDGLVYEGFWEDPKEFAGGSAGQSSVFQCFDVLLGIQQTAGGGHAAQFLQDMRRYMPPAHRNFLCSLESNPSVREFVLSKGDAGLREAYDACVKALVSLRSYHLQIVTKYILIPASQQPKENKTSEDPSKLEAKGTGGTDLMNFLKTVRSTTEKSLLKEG

Sequence of TDO2 (P48775 whole entry): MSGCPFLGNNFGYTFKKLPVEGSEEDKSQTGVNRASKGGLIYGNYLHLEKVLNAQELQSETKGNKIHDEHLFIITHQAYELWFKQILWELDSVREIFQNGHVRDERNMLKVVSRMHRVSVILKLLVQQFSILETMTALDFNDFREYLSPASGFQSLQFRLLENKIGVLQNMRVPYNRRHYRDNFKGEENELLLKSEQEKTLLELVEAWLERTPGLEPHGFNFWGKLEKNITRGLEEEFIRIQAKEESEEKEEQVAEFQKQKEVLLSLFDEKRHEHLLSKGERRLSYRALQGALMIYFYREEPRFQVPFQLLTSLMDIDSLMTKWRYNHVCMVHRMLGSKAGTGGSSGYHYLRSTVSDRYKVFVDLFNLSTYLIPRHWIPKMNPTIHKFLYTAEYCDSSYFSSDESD
Protocol for IDO1: (§1) The NFK GreenScreen™ (NTRC, Netherlands) uses a specific chemical probe that binds to N-Formylkynurenine (NFK), a product of tryptophan catabolism facilitated by IDO or TDO and causes fluorescence at 510 nm when excited at 410 nm. […] The assay is multiplexed with Cell Titer-Glo® (Promega) to determine if compounds are cytotoxic. […] Cells are counted on a Vi-Cell (Beckman Coulter). SW48 cells are diluted to 1×10^6 cells/ml in assay media. A172 cells are diluted to 0.24×10^6 cells/ml in assay media. […] 5 ul of assay media containing 1.2 mM tryptophan are added to the SW48 cells for a final concentration of 200 uM tryptophan in each well. 5 ul of assay media containing 600 uM tryptophan and 600 ng/ml IFNγ are added to the A172 cells for a final concentration of 100 uM tryptophan and 100 ng/ml IFNγ in each well. The final DMSO concentration is 0.5%. Cell plates are placed at room temperature in a closed TC hood with the blower off to allow cells to settle for approximately 30 min. Plates are then moved to an incubator set at 37° C., 5% CO2 for 24 hours. After the 24 hour compound incubation, 8 ul of NFK green reagent is added to each well with a Multidrop™ Combi dispenser (Thermo Scientific). Plates are sealed and incubated at 37° C., 5% CO2 for 5 hours, then read on a PHERAstar® (BMG labtech). Data are analyzed by normalizing to DMSO and high inhibitor controls. After the plates have been read for NFK green, 25 ul of Cell Titer-Glo® (Promega) are added to each well, incubated for 15 minutes at room temperature, and read on the Envision (Perkin Elmer). Cell Titer-Glo data are analyzed by normalizing to the DMSO controls. Four-parameter curve fitting is used and EC50 data are reported.
Protocol for TDO2: as §1

Take `O=S1(=O)NCC2CC(C3c4ccccc4-c4cncn43)CCN21` (stereo not shown) [Example 94, 5-(5H-imidazo[5,1-a]isoindol-5-yl)hexahydro-2H-[1,2,5]thiadiazolo[2,3-a]pyridine 1,1-dioxide]: the EC50 at TDO2 is 420 nM; on IDO1 it was 7100 nM. As to `c1ccc2c(c1)-c1cncn1C2C1CCn2nccc2C1` (single isomer, unassigned) [Example 05b], on TDO2, the EC50 was 1700 nM. As to `CC(C)(C)OC(=O)N1CCC2(CC1)CC(C1c3ccccc3-c3cncn31)C2` (stereo not shown) [Example 57, tert-butyl 2-(5H-imidazo[5,1-a]isoindol-5-yl)-7-azaspiro[3.5]nonane-7-carboxylate], the EC50 is 1500 nM at TDO2 and 910 nM at IDO1.

Consider `NC(=O)C1CCC(C2c3ccccc3-c3cncn32)CC1` (single isomer, unassigned) [Example 60c], for which the EC50 on IDO1 was 6400 nM. Take `NC(=O)C1CCC(C2c3ccccc3-c3cncn32)CC1` (single isomer, unassigned) [Example 60b]: the EC50 came out at 270 nM at TDO2 and 1500 nM at IDO1. At TDO2, `Cn1cc(C2c3ccccc3-c3cncn32)cn1` (single isomer, unassigned) [Example 79a] showed an EC50 of 10000 nM. For `Cn1cc(C2c3ccccc3-c3cncn32)cn1` (single isomer, unassigned) [Example 79b], the EC50 on TDO2 came to 530 nM; on IDO1 it was 8500 nM. On the same counts, the results for `CS(=O)(=O)N1CC2CC(C3c4ccccc4-c4cncn43)CC2C1` (stereo not shown) [Example 75a, 5-(2-(methylsulfonyl)octahydrocyclopenta[c]pyrrol-5-yl)-5H-imidazo[5,1-a]isoindole] are 2100 nM and 7600 nM. For the compound `CS(=O)(=O)N1CC2(CCC(C3c4ccccc4-c4cncn43)CC2)C1` (single isomer, unassigned) [Example 78b], the EC50 on TDO2 worked out at 2500 nM; on IDO1 it was 1400 nM.

As to `CNS(=O)(=O)c1cccc(C2c3ccccc3-c3cncn32)c1` (stereo not shown) [Example 12, 3-(5H-imidazo[5,1-a]isoindol-5-yl)-N-methylbenzenesulfonamide], the EC50 came out at 1800 nM at TDO2 and 11000 nM at IDO1. Consider `CC(O)c1cccc(C2c3ccccc3-c3cncn32)c1` (single isomer, unassigned) [Example 10c], for which the results for the EC50 at TDO2 and at IDO1 were 590 nM and 22000 nM, respectively. Compound `OCc1ccc(F)c(C2c3ccccc3-c3cncn32)c1` (stereo not shown) [Example 08, (4-fluoro-3-(5H-imidazo[5,1-a]isoindol-5-yl)phenyl)methanol] showed an EC50 on TDO2 of 1500 nM. Consider `CS(=O)(=O)N1CC2C(C1)C2C1c2ccccc2-c2cncn21` (stereo not shown) [Example 93, 5-(3-(methylsulfonyl)-3-azabicyclo[3.1.0]hexan-6-yl)-5H-imidazo[5,1-a]isoindole], for which the values for the EC50 on TDO2 and on IDO1 were 770 nM and 8600 nM, respectively.

With `NS(=O)(=O)N1CCCC(C2c3ccccc3-c3cncn32)C1` (stereo not shown) [Example 64, 3-(5H-imidazo[5,1-a]isoindol-5-yl)piperidine-1-sulfonamide], the EC50 came to 410 nM at TDO2 and 4400 nM on IDO1. Compound `CC(O)c1cccc(C2c3ccccc3-c3cncn32)c1` (single isomer, unassigned) [Example 10b] showed an EC50 at TDO2 of 5700 nM.

For `CS(=O)(=O)N1CCC(C2c3ccccc3-c3cncn32)CC1` (stereo not shown) [Example 16, 5-(1-(methylsulfonyl)piperidin-4-yl)-5H-imidazo[5,1-a]isoindole], the EC50 at TDO2 came out at 150 nM; at IDO1 it was 930 nM.

On to `OCc1cccc([C@@H]2c3ccccc3-c3cncn32)c1` [Example 01a, (R)-(3-(5H-imidazo[5,1-a]isoindol-5-yl)phenyl)methanol], for which, on TDO2, the midpoint of the response, the EC50, lay at 11000 nM.

Consider `NC(=O)c1cccc(C2c3ccccc3-c3cncn32)c1` (stereo not shown) [Example 11, 3-(5H-imidazo[5,1-a]isoindol-5-yl)benzamide], for which the midpoint of the response on TDO2, the EC50, lay at 650 nM.

With `Fc1cc(C2c3ccccc3-c3cncn32)cc(F)c1F` (stereo not shown) [Example 65, 5-(3,4,5-trifluorophenyl)-5H-imidazo[5,1-a]isoindole], the EC50 on TDO2 came out at 210 nM; at IDO1, 1900 nM. On to `Cn1cc(C2c3ccccc3-c3cncn32)ccc1=O` (single isomer, unassigned) [Example 84a], for which, at TDO2, the EC50 came to 7100 nM. In the case of `NS(=O)(=O)N1CC2C(C1)C2C1c2ccccc2-c2cncn21` (stereo not shown) [Example 96, 6-(5H-imidazo[5,1-a]isoindol-5-yl)-3-azabicyclo[3.1.0]hexane-3-sulfonamide], the EC50 on TDO2 was 390 nM; at IDO1, 9000 nM. On TDO2, `OCc1cccc(C2c3ccccc3-c3cncn32)n1` (stereo not shown) [Example 03, (6-(5H-imidazo[5,1-a]isoindol-5-yl)pyridin-2-yl)methanol] showed an EC50 of 13000 nM. Still for that read-out and setting: to `CCS(=O)(=O)Nc1cc2n(n1)CCC(C1c3ccccc3-c3cncn31)=C2` (stereo not shown) [Example 68, N-(5-(5H-imidazo[5,1-a]isoindol-5-yl)-6,7-dihydropyrazolo[1,5-a]pyridin-2-yl)ethanesulfonamide] belongs 1400 nM; to `c1ccc2c(c1)-c1cncn1C2c1cnn2c1CCC2` (stereo not shown) [Example 87, 5-(5,6-dihydro-4H-pyrrolo[1,2-b]pyrazol-3-yl)-5H-imidazo[5,1-a]isoindole], 2700 nM; to `c1ccc2c(c1)-c1cncn1C2CCC1CCCCC1` (stereo not shown) [Example 22, 5-(2-cyclohexylethyl)-5H-imidazo[5,1-a]isoindole], 2300 nM.

`CCS(=O)(=O)N1CC(C2c3ccccc3-c3cncn32)C1` (stereo not shown) [Example 25, 5-(1-(ethylsulfonyl)azetidin-3-yl)-5H-imidazo[5,1-a]isoindole]: the EC50 on TDO2 amounted to 14000 nM. Same read-out and setting: to `c1ccc2c(c1)-c1cncn1C2C1CCn2nccc2C1` (single isomer, unassigned) [Example 05c] belongs 24000 nM; to `N#CC1(CC2c3ccccc3-c3cncn32)CC1` (stereo not shown) [Example 48, 1-((5H-imidazo[5,1-a]isoindol-5-yl)methyl)cyclopropane-1-carbonitrile], 6200 nM; to `c1cncc(C2c3ccccc3-c3cncn32)c1` (stereo not shown) [Example 37, 5-(pyridin-3-yl)-5H-imidazo[5,1-a]isoindole], 4100 nM. On TDO2, `CC(O)c1cccc(C2c3ccccc3-c3cncn32)c1` (single isomer, unassigned) [Example 10d] had an EC50 of 5000 nM.

In the case of `NC(=O)C1(CC2c3ccccc3-c3cncn32)CC1` (stereo not shown) [Example 54, 1-((5H-imidazo[5,1-a]isoindol-5-yl)methyl)cyclopropane-1-carboxamide], the EC50 at TDO2 is 5400 nM. Same read-out and setting: in the case of `CS(=O)(=O)N1CC2(CC(C3c4ccccc4-c4cncn43)C2)C1` (single isomer, unassigned) [Example 72b] it was 17000 nM; in that of `c1ccc2c(c1)-c1cncn1C2C1CCn2nccc2C1` (single isomer, unassigned) [Example 05a], 1100 nM. Same read-out and setting: in the case of `CS(=O)(=O)C1CCC(C2c3ccccc3-c3cncn32)CC1` (single isomer, unassigned) [Example 83a] it was 22000 nM; in that of `c1ccc2c(c1)-c1cncn1C2c1ccncc1` (stereo not shown) [Example 41, 5-(pyridin-4-yl)-5H-imidazo[5,1-a]isoindole], 2500 nM. At TDO2, `NS(=O)(=O)c1cccc(C2c3ccccc3-c3cncn32)c1` (single isomer, unassigned) [Example 07a] registered an EC50 of 7200 nM.

The values above are taken from patent publication US11827639B2, “TDO2 and IDO1 inhibitors” (Genentech, Inc., priority 2017, dated 2023).
